Series [1] has as its system fmr1 knockout mice. In words: audiogenic seizures in the fmr1 knockout transgenic mouse model of Fragile X syndrome (Example 1). The series is classed as in vivo. As to the method:
Male fmr1 knockout mice were bred and tested at 21 days old. All mice were acclimated to the environment, examined, handled, and weighed prior to initiation of the study to assure adequate health and suitability and to minimize non-specific stress associated with manipulation. During the course of the study, 12/12 light/dark cycles were maintained. The room temperature was maintained between 20 and 23° C. with a relative humidity maintained around 50%. Chow and water were provided ad libitum for the duration of the study. Each mouse was randomly assigned across treatment groups. The testing was performed during the animals' light cycle phase. SL327 (Sigma Aldrich, 400 mg/kg) was dissolved in 5% Tween80 and saline and administered i.p. at a dose volume of 10 ml/kg 30 min prior to test. Mice were individually placed in a Plexiglas chamber and allowed to explore for 15 sec following which they were exposed to a 125 dB tone for 2 minutes, followed by 1 minute of no sound, and then a further 2 minute tone. The mice were scored based on their response, latency, and seizure intensity: […]

Series [2] has as its system FMRI knockout mice. In words: audiogenic seizure test in FMRI knockout mice (Example 2). The series is classed as in vivo. As to the method: Male FMRI knockout mice were bred at PsychoGenies and tested at 21 days old. All mice were acclimated to the environment, examined, handled, and weighed prior to initiation of the study to assure adequate health and suitability and to minimize non-specific stress associated with manipulation. During the course of the study, 12/12 light/dark cycles were maintained. The room temperature was maintained between 20 and 23° C. with a relative humidity maintained around 50%. Chow and water were provided ad libitum for the duration of the study. Each mouse was randomly assigned across treatment groups. The testing was performed during the animals' light cycle phase
The following compounds were used.
Mice were individually placed in a Plexiglas chamber and allowed to explore for 15 sec following which they were exposed to a 125 dB tone for 2 minutes, followed by 1 minute of no sound, and then a further 2 minute tone. The mice were scored based on their response, latency, and seizure intensity:
Data were analyzed by analysis of variance (ANOVA) followed by post-hoc comparisons with Fisher Tests when appropriate. An effect was considered significant if p<0.05. Data are presented as the mean±standard error of the mean.

The mark [3] stands for this setting: perillyl alcohol 25 mg/kg i.p., 60 min prior to testing.
Setting [4] is: perillyl alcohol 50 mg/kg i.p., 60 min prior to testing.
Where [5] appears, read: MPEP 30 mg/kg i.p., 30 min prior to testing.

Entries after “also recorded” stand apart in the source; their conditions may differ. Bounds are passed on as bounds.

On to `N#C/C(=C(/N)Sc1ccc(N)cc1)c1ccccc1C(F)(F)F` [SL327, (2Z)-3-amino-3-[(4-aminophenyl)sulfanyl]-2-[2-(trifluoromethyl)phenyl]prop-2-enenitrile], for which, in series [1] (SL327 400 mg/kg i.p.), the “mean seizure score compared to vehicle” value was “significantly lower seizure score”, the survival entry is given as “All mice receiving SL327 survived” and the “survival rate following testing” value is 100%. Besides, the audiogenic seizure activity entry in series [1] (SL327 400 mg/kg i.p. 30 min prior to test, male fmr1 knockout mice, 21 days old, vs Tween80 vehicle, 400 mg/kg) is “absence of any audiogenic seizure activity; also recorded: completely inhibits all seizure activity; also recorded: seizure activity was completely prevented”. In series [1] (SL327 400 mg/kg i.p., 240 sec = maximum total time of audiogenic stimulation, given to animals with no response), this compound yielded a latency to seizure onset above 240 s. This compound also registered a seizure score in series [1] (SL327 400 mg/kg i.p., scale 0 (no response) to 5 (respiratory arrest)) of 0.
For the compound `C=C(C)[C@@H]1CC=C(CO)CC1` [perillyl alcohol, [(4S)-4-(prop-1-en-2-yl)cyclohex-1-en-1-yl]methanol], in series [2] (setting [3]), the “latency to onset of seizure compared to respective vehicle” value is “significantly delayed the onset; also recorded: increased the latency to seizure”, the “latency to respiratory arrest compared to respective vehicle” value was “significantly delayed the onset; also recorded: significantly prolonged the latency to respiratory arrest” and the “mean seizure score compared to vehicle” value is “attenuated overall seizure score; also recorded: significantly decreased seizure score”. Further, in series [2] (setting [4]), the “latency to onset of seizure compared to respective vehicle” value is listed as “significantly delayed the onset; also recorded: increased the latency to seizure”, the “latency to respiratory arrest compared to respective vehicle” value is given as “significantly delayed the onset; also recorded: significantly prolonged the latency to respiratory arrest” and the “mean seizure score compared to vehicle” value is given as “attenuated overall seizure score; also recorded: significantly decreased seizure score”.
Regarding `Cc1cccc(C#Cc2ccccc2)n1.Cl` [MPEP], in series [2] (MPEP 30 mg/kg i.p.), the “respiratory distress during testing” value was “no respiratory distress”. In series [2] (setting [5]), the “latency to onset of seizure compared to respective vehicle” value was “significantly delayed the onset; also recorded: increased the latency to seizure”, the “latency to respiratory arrest compared to respective vehicle” value is on record as “significantly delayed the onset; also recorded: significantly prolonged the latency to respiratory arrest” and the “mean seizure score compared to vehicle” value is reported as “attenuated overall seizure score; also recorded: significantly decreased seizure score”. In addition, the “latency to respiratory arrest” value in series [2] (MPEP 30 mg/kg i.p., 240 sec given to animals with no response) stood at 240 s. In addition, the “clinical signs or toxicity during pretreatment or testing” value in series [2] (i.p., MPEP HCI 30 mg/kg, perillyl alcohol 25 and 50 mg/kg) is on record as “No clinical signs or toxicity were observed”.

For the origin of these results see patent US20150141380A1, “INHIBITORS OF ERK FOR DEVELOPMENTAL DISORDERS OF NEURONAL CONNECTIVITY” (CASE WESTERN RESERVE UNIVERSITY, priority 2010, published 2015).
